Here are results for 19 molecules from ChEMBL document CHEMBL5244218, “Quinolone derivatives and their activities against methicillin-resistant Staphylococcus aureus (MRSA)” (Eur J Med Chem, 2018).

In series [1] the test system is Staphylococcus aureus. Kind of series: Antibacterial activity against methicillin-resistant Staphylococcus aureus isolates by two fold dilution method. In kind it is functional.
A short description of series [2]: Permeability coefficient of compound. In kind it is ADME. Particulars: not told; read-out: Kp (converted).
Series [3] relates to Staphylococcus aureus. Kind of series: Antimicrobial activity against methicillin-resistant Staphylococcus aureus assessed as inhibition of microbial growth at 15.63 ug/ml relative to control. Set-up: scale not given: the % may be the effect or the level left. In kind it is functional. Particulars: dose 15.63 µg/ml.
For series [4], the system named is Staphylococcus aureus. Kind of series: Potency index, ratio of ciprofloxacin MIC to test compound MIC for antimicrobial activity against methicillin-resistant Staphylococcus aureus. In kind it is functional.
In series [5] the test system is Staphylococcus aureus. Description: Antimicrobial activity against methicillin-resistant Staphylococcus aureus assessed as inhibition of microbial growth. In kind it is functional.
For series [6], the system named is Staphylococcus aureus. Kind of series: Antimicrobial activity against methicillin-resistant Staphylococcus aureus. In kind it is functional, organism-based.
Series [7] can be described thus: Cytotoxicity against human HEK293 cells incubated for 72 hrs by MTT assay. It counts as toxicity, cell-based.
The test system of series [8] is Staphylococcus aureus. Kind of series: Antimicrobial activity against methicillin-resistant Staphylococcus aureus by agar dilution method. It counts as functional.
The subject of series [9] is Staphylococcus aureus. Description: Potency index, ratio of ciprofloxacin MIC to test compound MIC for antimicrobial activity against methicillin-resistant Staphylococcus aureus clinical isolate 1. It counts as functional.
Series [10] deals with Staphylococcus aureus. Description: Potency index, ratio of ciprofloxacin MIC to test compound MIC for antimicrobial activity against methicillin-resistant Staphylococcus aureus clinical isolate 2. In kind it is functional.
Series [11] relates to Staphylococcus aureus. Description: Antimicrobial activity against methicillin-resistant Staphylococcus aureus clinical isolate 2 measured after 18 hrs by agar dilution method. It counts as functional.
The subject of series [12] is Staphylococcus aureus. Kind of series: Antimicrobial activity against methicillin-resistant Staphylococcus aureus clinical isolate 1 measured after 18 hrs by agar dilution method. In kind it is functional.
In series [13] the test system is Staphylococcus aureus. Kind of series: Potency index, ratio of norfloxacin MIC to test compound MIC for antimicrobial activity against methicillin-resistant Staphylococcus aureus clinical isolate 1. It counts as functional.
The test system of series [14] is Staphylococcus aureus. Kind of series: Potency index, ratio of norfloxacin MIC to test compound MIC for antimicrobial activity against methicillin-resistant Staphylococcus aureus clinical isolate 2. In kind it is functional.
In series [15] the test system is Staphylococcus aureus. Description: Potency index, ratio of norfloxacin MIC to test compound MIC for antimicrobial activity against methicillin-resistant Staphylococcus aureus. It counts as functional.
Series [16] has as its system Staphylococcus aureus. Kind of series: Antimicrobial activity against methicillin-resistant Staphylococcus aureus MR101 Mu50 measured after 18 hrs by microplate dilution method. In kind it is functional.
The test system of series [17] is Staphylococcus aureus. Kind of series: Antibacterial activity against methicillin-resistant Staphylococcus aureus infected in mouse model assessed as increase in survival rate relative to control. In kind it is functional.
The subject of series [18] is Staphylococcus aureus. Kind of series: Antibacterial activity against methicillin-resistant Staphylococcus aureus infected in mouse model assessed as reduction in log10CFU in lungs (reference value: 8.47 log10CFU). It counts as functional.
The test system of series [19] is Staphylococcus aureus. Description: Antimicrobial activity against methicillin-resistant Staphylococcus aureus Mi339 by microbroth dilution method. It counts as functional.
The subject of series [20] is Staphylococcus aureus. Description: Antimicrobial activity against methicillin-resistant Staphylococcus aureus incubated for 18 hrs by Alamar blue staining based analysis. In kind it is functional.
The test system of series [21] is Staphylococcus aureus. Kind of series: Antimicrobial activity against methicillin-resistant Staphylococcus aureus Mi300 by microbroth dilution method. In kind it is functional.
Series [22] relates to Staphylococcus aureus. Kind of series: Antibacterial activity against methicillin-resistant Staphylococcus aureus assessed as inhibition of microbial growth. It counts as functional.
Series [23] deals with Staphylococcus aureus. Kind of series: Bactericidal activity against methicillin-resistant Staphylococcus aureus assessed as inhibition of microbial growth. It counts as functional.
The subject of series [24] is Staphylococcus aureus. Description: Antimicrobial activity against methicillin-resistant Staphylococcus aureus isolates by agar dilution method. In kind it is functional.
The test system of series [25] is Staphylococcus aureus. Kind of series: Antimicrobial activity against methicillin-resistant Staphylococcus aureus incubated for 18 hrs by Agar dilution method. In kind it is functional.
The test system of series [26] is Staphylococcus aureus. Description: Antibacterial activity against methicillin-resistant Staphylococcus aureus. In kind it is functional.

Values after ≈ are worked out from the molar mass of the structure shown. Bounds are passed on as bounds.

In series [1], `O=C(O)c1c(=O)c2cc(F)c(N3CCOCC3)c3c2n2c(csc12)CN3` registered an MIC of 0.05 µg/mL (≈ 0.133 µM).
As to `CCCOC(=O)c1cn(C2CC2)c2cc(N3CCNCC3)ccc2c1=O`, in series [2], the Papp is 0.195 ×10⁻⁶ cm/s. Also, in series [3], the Activity came out at 80%.
Take `O=C(O)c1cn(C2CC2)c2c(c1=O)C=C(F)C1N=NC(c3ccccc3F)=CN21` (stereo unspecified): the Ratio in series [4] is recorded as 32. In addition, the MIC in series [5] is 0.25 µg/mL.
With `O=C(O)c1cn(C2CC2)c2cc(N3CCN(Cc4cccc(CN5CCN(c6ncc7c(=O)c(C(=O)O)cn(C8CC8)c7n6)CC5)c4)CC3)ccc2c1=O`, the Ratio in series [4] was over 16. For the same molecule, the MIC in [6] was under 0.03 µg/mL.
For the molecule `COC(=O)c1cn(C2CC2)c2cc(N3CCNCC3)ccc2c1=O`, the Papp in series [2] was 0.00797 ×10⁻⁶ cm/s. Moreover, the Activity in series [3] is listed as 80%.
Consider `O=C(O)c1cn(C2CC2)c2c(Cl)c(N3CCN(Cn4nc(-c5ccccc5O)n(-c5cc(Cl)cc(Cl)c5)c4=S)CC3)c(F)cc2c1=O`, for which, in series [7], the EC50 at 72 h was determined as 50.5 µM.
Consider `O=C(O)c1cn(C2CC2)c2c(c1=O)C=C(F)C1N=NC(c3ccc(F)cc3)=CN21` (stereo unspecified), for which the Ratio in series [4] was 32. For the same molecule, the MIC in series [5] worked out at 0.25 µg/mL.
In series [8], `CCO/N=C1\CCN(c2c(F)cc3c(=O)c(C(=O)O)cn(C4CC4)c3c2F)CC1(C)CNC` (stereo unspecified) had an MIC of 64 µg/mL (≈ 138 µM).
As for `NO/N=C(/CN1CCN(c2cc3c(cc2F)c(=O)c(C(=O)O)cn3C2CC2)CC1)c1cccs1`, the Ratio in [9] is recorded as 2; in [10] it was 2; in series [13], 4; in [14], 4. In addition, the MIC in [11] and in [12] was 0.19 µg/mL (≈ 0.391 µM) throughout.
In the case of `CCn1cc(C(=O)O)c(=O)c2cc(F)c(N3CCN(C/C(=N/O)c4ccc(OC)cc4)CC3)c(F)c21`, the Ratio in [15] came to 24. Moreover, in [6], inhibition of growth (MIC) required 0.2 µM.
Regarding `Cc1c(N2C[C@@H](F)[C@@H](C3(C)CC3)C2)c(F)c(N)c2c(=O)c(C(=O)O)cn([C@@H]3C[C@@H]3F)c12`, in [16], 0.125 µg/mL (≈ 0.287 µM) was the least that counted as inhibitory (MIC). The Activity in series [17] stood at 90%; in [18] it was 6.33 log10CFU.
Molecule `CCNCC1CCN(c2c(F)cc3c(=O)c(C(=O)O)c4scc5n4c3c2NC5)C1` (stereo unspecified) gave an MIC in series [1] of 0.05 µg/mL (≈ 0.12 µM).
`CCO/N=C1\CCN(c2nc3c(cc2F)c(=O)c(C(=O)O)cn3C2CC2)CC1(C)CNC` (stereo unspecified) showed an MIC in series [8] of 64 µg/mL (≈ 144 µM).
For the molecule `O=C(O)c1cn(C2CC2)c2cc(N3CCNCC3)c(F)cc2c1=O` [CIPROFLOXACIN], the MIC in series [19] was 32 µg/mL (≈ 96.6 µM); in [20] it was 64 µg/mL (≈ 193 µM); in [6], 0.5 µg/mL; in series [21], 0.25 µg/mL (≈ 0.754 µM); in series [22] it was 0.06 µg/mL. The MBC in series [23] is 0.031 µg/mL.
As for `C[C@H]1COc2c(N3CCN(C)CC3)c(F)cc3c(=O)c(C(=O)O)cn1c23.C[C@H]1COc2c(N3CCN(C)CC3)c(F)cc3c(=O)c(C(=O)O)cn1c23.O` [LEVOFLOXACIN], the minimum inhibitory concentration (MIC) was found to be 32 µg/mL in series [20]; 0.5 µg/mL in series [24]; 0.06 µg/mL in series [25]; 16 µg/mL in series [6]; 1.56 µg/mL in [1].
In the case of `CCn1cc(C(=O)O)c(=O)c2cc(F)c(N3CCNCC3)cc21` [NORFLOXACIN], the MIC was 8 µg/mL (≈ 25.1 µM) in series [26], 0.78 µg/mL (≈ 2.44 µM) in [11], 0.78 µg/mL (≈ 2.44 µM) in series [12] and under 0.016 µg/mL in series [5]. Moreover, in series [23], the MBC was 4 µg/mL.
`CC1COc2c(N3CCN(C)CC3)c(F)cc3c(=O)c(C(=O)O)cn1c23` (stereo unspecified) [OFLOXACIN] gave a minimal inhibitory concentration (MIC) in series [1] of 1.56 µg/mL (≈ 4.32 µM).
In turn, `CCn1cc(C(=O)O)c(=O)c2cc(F)c(N3CCN(C)CC3)cc21` [PEFLOXACIN] registered an MIC in series [1] of 1.56 µg/mL (≈ 4.68 µM).
`CN[C@H](CC(C)C)C(=O)N[C@H]1C(=O)N[C@@H](CC(N)=O)C(=O)N[C@H]2C(=O)N[C@H]3C(=O)N[C@H](C(=O)N[C@H](C(=O)O)c4cc(O)cc(O)c4-c4cc3ccc4O)[C@H](O)c3ccc(c(Cl)c3)Oc3cc2cc(c3O[C@@H]2O[C@H](CO)[C@@H](O)[C@H](O)[C@H]2O[C@H]2C[C@](C)(N)[C@H](O)[C@H](C)O2)Oc2ccc(cc2Cl)[C@H]1O` [VANCOMYCIN]: the values for the Activity in series [17] and in [18] were 45% and 7.99 log10CFU, respectively.
